Assay in all cases: growth of human tumour cells (NCI), 48 h
The subject of assay [1] is ACHN.
The test system of assay [2] is HCT-15.
Assay [3] has as its system HOP-92.
The subject of assay [4] is SF-295.
In assay [5] the test system is SNB-75.
Assay [6] deals with OVCAR-4.
The test system of assay [7] is HOP-62.
Assay [8] relates to SK-MEL-5.
In assay [9] the test system is SF-539.
For assay [10], the system named is UACC-257.
Assay [11] relates to Malme-3M.
Assay [12] has as its system NCI/ADR-RES.
Assay [13] concerns OVCAR-3.
Assay [14] deals with SK-MEL-2.
The test system of assay [15] is SK-MEL-28.
For assay [16], the system named is HL-60.
Assay [17] deals with M14.
Assay [18] relates to 786-0.
For assay [19], the system named is K562.
In assay [20] the test system is HT-29.

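Where inhibition never reached the appropriate level, the endpoint shown equals the highest concentration tested. Otherwise, values were interpolated linearly from a five-concentration, 48-hour dose response in 96-well plates. GI50: concentration for 50% inhibition of growth.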 Active and inactive are the calls of the source. Cut-off read from the data, not from the text of the source: active = GI50 up to about 1.1 µM and inactive = higher. Some results are limits rather than exact numbers.

Regarding `CCOP1(=O)C=C(Sc2ccc([N+](=O)[O-])cc2[N+](=O)[O-])C(C)(C)O1` (stereo not given), the GI50 was 14.5 µM (inactive) in assay [1]; 14.7 µM in assay [2]; 7.26 µM (inactive) in assay [3]; 17.9 µM (inactive) in [4]; 19.8 µM (inactive) in [5]; 13.5 µM (inactive) in [6]. Besides, the GI50 in [7] was 27.9 µM (inactive); in assay [8], 9.86 µM (inactive); in assay [9], 11.7 µM (inactive); in [10], 12.3 µM (inactive); in assay [11] it was 12 µM (inactive); in assay [12], 25.3 µM (inactive). Also, the GI50 in assay [13] is 11.6 µM (inactive); in [14], 11.3 µM (inactive); in [15] it was 16.2 µM (inactive); in assay [16], 3.41 µM (inactive); in assay [17], 11.9 µM (inactive); in assay [18] it was 8.81 µM (inactive). The GI50 was 2.52 µM (inactive) in assay [19] and 8.39 µM (inactive) in [20].
Turning to `COc1ccc2[nH]c3c(C)c4ccnc(NCCCN(C)CCCN)c4c(C)c3c2c1`, the GI50 is 0.119 µM (active) in [1]; 0.258 µM in assay [2]; 0.13 µM (active) in assay [3]; 0.214 µM (active) in assay [4]; 0.0257 µM (active) in [5]; 0.0809 µM (active) in assay [6]. Also, the GI50 in assay [7] was 0.109 µM (active); in assay [8], 0.178 µM (active); in [9], 0.118 µM (active); in assay [10], 0.979 µM (active); in assay [11] it was 0.31 µM (active); in assay [12], 0.394 µM (active). Also, the GI50 was 0.469 µM (active) in [13]; 0.336 µM (active) in assay [14]; 0.719 µM (active) in [15]; 0.12 µM (active) in assay [16]; 0.171 µM (active) in [17]; 0.0596 µM (active) in assay [18]. In addition, the figures for the GI50 in assay [19] and in assay [20] were 0.118 µM (active) and 0.042 µM (active), respectively.
Turning to `COc1cccc(/C=N/NC(=O)CSCC(=O)N/N=C/c2cccc(OC)c2OC)c1OC`, the GI50 in assay [1] is > 100 µM (inactive); in [2], > 100 µM; in [3], > 100 µM (inactive); in [4] it was > 100 µM (inactive); in assay [5] it was > 100 µM (inactive); in assay [6], > 100 µM (inactive). For the same compound, the GI50 in assay [7] is > 100 µM (inactive); in assay [8], 58.3 µM (inactive); in assay [9], > 100 µM (inactive); in assay [10], > 100 µM (inactive); in [11], > 100 µM (inactive); in assay [12] it was > 100 µM (inactive). For the same compound, the GI50 in assay [13], in assay [14], in assay [15], in [16], in assay [17] and in [18] was > 100 µM (inactive) in each case. Besides, the GI50 in assay [19] and in assay [20] was > 100 µM (inactive) throughout.
Turning to `C/C(=N\NC(=S)NCc1ccccc1)c1nc2cccnc2[nH]1`, the GI50 is 3.57 µM (inactive) in assay [1]; 4.45 µM in assay [2]; 4.37 µM (inactive) in [3]; 6.41 µM (inactive) in assay [4]; 20.2 µM (inactive) in assay [5]; 16.4 µM (inactive) in assay [6]. Further, the GI50 was 6.85 µM (inactive) in assay [7]; 3.57 µM (inactive) in assay [8]; 5.73 µM (inactive) in assay [9]; 9.62 µM (inactive) in [10]; 13.4 µM (inactive) in [11]; 9.98 µM (inactive) in [12]. Besides, the GI50 in assay [13] was 11.1 µM (inactive); in assay [14] it was 13.1 µM (inactive); in assay [15], 14.6 µM (inactive); in assay [16] it was 3.71 µM (inactive); in [17], 6.01 µM (inactive); in assay [18] it was 6.92 µM (inactive). Moreover, the results for the GI50 in [19] and in assay [20] were 5.35 µM (inactive) and 3.48 µM (inactive), respectively.
For the compound `CC(=O)OC1COC(n2nc(/C=C/c3ccc(Cl)cc3)c(=O)n(/N=C/c3ccccc3)c2=S)C(OC(C)=O)C1OC(C)=O` (stereo not given), the GI50 is > 100 µM (inactive) in [1]; > 100 µM in [2]; > 100 µM (inactive) in assay [3]; > 100 µM (inactive) in [4]; > 100 µM (inactive) in assay [5]; > 100 µM (inactive) in assay [6]. For the same compound, the GI50 in assay [7], in assay [8], in assay [9], in assay [10], in assay [11] and in [12] was > 100 µM (inactive) each time. Besides, the GI50 in assay [13], in [14], in assay [15], in [16], in assay [17] and in [18] was > 100 µM (inactive) in each case. The GI50 in [19] and in [20] was > 100 µM (inactive) in each case.
`N#CC(NC12CC3CC(CC(C3)C1)C2)c1ccccc1` (stereo not given): the GI50 was > 100 µM (inactive) in assay [1]; > 100 µM in assay [2]; 94.2 µM (inactive) in assay [3]; > 100 µM (inactive) in [4]; > 100 µM (inactive) in assay [5]; > 100 µM (inactive) in assay [6]. Moreover, the GI50 in assay [7], in assay [8], in [9], in assay [10], in assay [11] and in assay [12] was > 100 µM (inactive) each time. Besides, the GI50 in [13], in [14], in [15], in [16], in [17] and in assay [18] was > 100 µM (inactive) throughout. The GI50 in assay [19] and in assay [20] was > 100 µM (inactive) in each case.
In the case of `Nc1ccn(C=C=CCO)c(=O)n1`, the GI50 is > 100 µM (inactive) in [1]; > 100 µM in assay [2]; > 66.4 µM (inactive) in [3]; > 100 µM (inactive) in [4]; > 93.8 µM (inactive) in assay [5]; > 100 µM (inactive) in assay [6]. The GI50 in [7], in assay [8], in [9], in assay [10], in assay [11] and in [12] was > 100 µM (inactive) throughout. Besides, the GI50 was > 100 µM (inactive) in assay [13]; > 100 µM (inactive) in assay [14]; > 100 µM (inactive) in assay [15]; 48.9 µM (inactive) in [16]; > 100 µM (inactive) in assay [17]; > 100 µM (inactive) in [18]. Moreover, the GI50 in assay [19] and in assay [20] was > 100 µM (inactive) throughout.

The values are drawn from ChEMBL document CHEMBL1201862, “PubChem BioAssay data set” (2004).
